In patent publication US10976320B2, “Methods for identifying and treating cancer patients” (The Board of Trustees of the Leland Stanford Junior …, priority 2013, dated 2021):

Key:
[1] = test system: Brg1fl/fl(ERD) ESCs; assay: Cell cycle analysis (BrdU/7-AAD FACS) with or without caffeine; format: cell-based, mouse; conditions: caffeine added to media 2 h before BrdU incubation; FIG. 1D
Excerpt: FIG. 1A-FIG. 1F. BRG1 associates with Topo2A and regulates its function. FIG. 1A, Anaphase bridges in Brg1^fl/fl and Brg1^fl/fl(ERD) ESCs. Data represent number of slides from four independent experiments±s.e.m. FIG. 1B, Co-immunoprecipitation of BRG1 and Topo2A from nuclear lysates. FIG. 1C, DNA content in Brg1^fl/fl and Brg1^fl/fl(ERD) ESCs after release from double thymidine block. FIG. 1D, Cell cycle analysis of Brg1^fl/fl and Brg1^fl/fl(ERD) ESCs with or without caffeine, an ATM/ATR inhibitor. FIG. 1E, Data represent five independent histone H3 serine 10 phosphorylation (H3(S10)P cell cycle analyses±s.e.m. FIG. 1F, Data represent the mean of the average chromosome length per cell from 40 cells from metaphase spreads of Brg1^fl/fl and Brg1^fl/fl(ERD) MEFs from two independent experiments.
The cell cycle analysis was performed using BD Biosciences BrdU-FITC FACS kit. ESCs were incubated with BrdU for 1 h and MEFs were incubated with BrdU for 4 h. Brg1^fl/fl and Brg1^fl/fl(ERD) ESCs were analysed 72 h after tamoxifen treatment. Caffeine was added to media 2 h before BrdU incubation. To determine the percent of cells in G2/M, DNA was stained with 7-AAD and analysed by FACS.

[2] = test system: ARID1A wild-type cells (293T and ES2) and ARID1A mutant cells (Hec1b, SKOV3, T47D, and TOV21G); assay: Synthetic lethal screen, Cell Titer Blue viability after treatment with topoisomerase inhibitors; format: cell-based; conditions: ARID1A mutant vs wild-type cell lines; IC50 (μM) only plotted in FIG. 11A-C; 72 h after compound addition
Protocol: FIG. 11A-FIG. 11C. Synthetic lethal screen comparing the sensitivity of ARID1A wild-type cells (293T and ES2) and ARID1A mutant cells (Hec1b, SKOV3, T47D, and TOV21G) to treatment with topoisomerase inhibitors. Values of IC50 (μM) are plotted on the y-axis, with error bars as shown. FIG. 11A: treatment with etoposide; FIG. 11B: treatment with doxorubicin; FIG. 11C: treatment with ICRF-193.
In each case, 1500-2000 cells were plated in 100 ul per 384 well clear bottom black plate (E&K Scientific EK-30091). After 24 hours, doses of the listed compound diluted in DMSO were pinned into the plates. After 48 hours, 10 ul of Cell Titer Blue (Promega) was added, and the cells were placed back in the incubator. Fluorescence was read after another 24 hours. IC50 values (μM) are reported on the y-axis.

[3] = test system: NCI60 non small cell lung cancer lines expressing BRG1/BRM or deficient in both; conditions: BRG1/BRM-deficient vs expressing NCI60 lung lines; IC50 (μM) only plotted in FIG. 12A-B; CellMiner data; cited from earlier work

Row | Molecule | effect on G2/M arrest [1] | sensitivity of cell lines carrying mutations in BAF subunits to the topoisomerase inhibitor [2] | sensitivity of cell lines carrying mutations in BAF subunits to the topoisomerase inhibitor [3]
1 | Cn1c(=O)c2c(ncn2C)n(C)c1=O [Caffeine] | overrides the G2/M arrest |  | 
2 | COc1cccc2c1C(=O)c1c(O)c3c(c(O)c1C2=O)C[C@@](O)(C(=O)CO)C[C@@H]3O[C@H]1C[C@H](N)[C@H](O)[C@H](C)O1 [doxorubicin] |  | decreased sensitivity | decreased sensitivity
3 | COc1cc([C@@H]2c3cc4c(cc3[C@@H](O[C@@H]3O[C@@H]5CO[C@@H](C)O[C@H]5[C@H](O)[C@H]3O)[C@H]3COC(=O)[C@H]23)OCO4)cc(OC)c1O [etoposide] |  | decreased sensitivity | decreased sensitivity
4 | ICRF-193 |  | no difference in the sensitivity | 
